Assay results as given in ChEMBL document CHEMBL1201862, “PubChem BioAssay data set” (2004).
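Five concentrations, 48 hours, 96-well plates. GI50 marks 50% less growth.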 The source made the active and inactive calls. Rule as the data show it: active = GI50 up to about 1.1 µM and inactive = higher.

Key:
Assay in all cases: DTP human tumour cell line panel, 48 h
UACC-62 = system: UACC-62
HCT-15 = system: HCT-15
ACHN = system: ACHN
SW-620 = system: SW-620
UO-31 = system: UO-31
NCI-H226 = system: NCI-H226
PC-3 = system: PC-3
A549 = system: A549
NCI-H23 = system: NCI-H23
OVCAR-8 = system: OVCAR-8
MCF7 = system: MCF7
OVCAR-4 = system: OVCAR-4
KM12 = system: KM12
Malme-3M = system: Malme-3M
UACC-257 = system: UACC-257
MDA-N = system: MDA-N
NCI/ADR-RES = system: NCI/ADR-RES
SNB-75 = system: SNB-75
TK-10 = system: TK-10
SF-295 = system: SF-295

SMILES | GI50 (UACC-62) | GI50 (HCT-15) [µM] | GI50 (ACHN) | GI50 (SW-620) | GI50 (UO-31) | GI50 (NCI-H226) | GI50 (PC-3) | GI50 (A549) | GI50 (NCI-H23) | GI50 (OVCAR-8) | GI50 (MCF7) | GI50 (OVCAR-4) | GI50 (KM12) | GI50 (Malme-3M) | GI50 (UACC-257) | GI50 (MDA-N) | GI50 (NCI/ADR-RES) | GI50 (SNB-75) | GI50 (TK-10) | GI50 (SF-295)
O=[N+]([O-])C(=C/c1cccs1)/C(=C\c1cccs1)[N+](=O)[O-] | 0.778 µM (active) | 0.199 | 0.543 µM (active) | 0.348 µM (active) | 1.2 µM (inactive) | 2.77 µM (inactive) | 0.575 µM (active) | 2.27 µM (inactive) | 0.787 µM (active) | 0.342 µM (active) | 0.676 µM (active) | 1.87 µM (inactive) | 2.34 µM (inactive) | 1.03 µM (active) | 1.29 µM (inactive) | 0.423 µM (active) | 0.54 µM (active) | 9.46 µM (inactive) | 0.962 µM (active) | 1.96 µM (inactive)
COC(=O)Cc1c(/C=C/C(C)(C)n2cnc(CCN3C(=O)CCC3=O)c2)[nH]c2ccccc12 | 14.2 µM (inactive) | > 100 | 95.5 µM (inactive) | > 100 µM (inactive) | 74.8 µM (inactive) | > 100 µM (inactive) | > 100 µM (inactive) | 94.6 µM (inactive) | > 100 µM (inactive) | > 100 µM (inactive) | 47.2 µM (inactive) | > 100 µM (inactive) | > 100 µM (inactive) | 37 µM (inactive) | > 100 µM (inactive) | > 100 µM (inactive) | > 100 µM (inactive) | 50.4 µM (inactive) | > 100 µM (inactive) | 81.1 µM (inactive)
CS(=O)(=O)CS(=O)(=O)OCCCl | 29.5 µM (inactive) | 209 | 124 µM (inactive) | 115 µM (inactive) | 348 µM (inactive) | 177 µM (inactive) | 348 µM (inactive) | 220 µM (inactive) | 143 µM (inactive) | 191 µM (inactive) | 229 µM (inactive) | 403 µM (inactive) | 339 µM (inactive) | 356 µM (inactive) | 169 µM (inactive) | 107 µM (inactive) | 324 µM (inactive) | 46.8 µM (inactive) | 465 µM (inactive) | 60.8 µM (inactive)
O=C(Nc1cccc2cnccc12)c1cc2c(cc1Cl)Sc1nccn1S2(=O)=O | 12.4 µM (inactive) | 8.71 | 28.3 µM (inactive) | 15.5 µM (inactive) | 18.6 µM (inactive) | 18.4 µM (inactive) | 23.3 µM (inactive) | 27.7 µM (inactive) | 6.67 µM (inactive) | 10.3 µM (inactive) | 5.36 µM (inactive) | 15.2 µM (inactive) | 4.66 µM (inactive) | 19.1 µM (inactive) | 18.1 µM (inactive) | 7.01 µM (inactive) | 14.4 µM (inactive) | 15.5 µM (inactive) | 24.4 µM (inactive) | 15.4 µM (inactive)
CSC1=NC(=O)CCN1C1OCC(OC(C)=O)C(OC(C)=O)C1OC(C)=O (stereo not given) | 40.6 µM (inactive) | 18.5 | 17 µM (inactive) | 18.3 µM (inactive) | 19.3 µM (inactive) | 18.7 µM (inactive) | 15 µM (inactive) | 18.6 µM (inactive) | 20.8 µM (inactive) | 15.8 µM (inactive) | 63.8 µM (inactive) | 19.2 µM (inactive) | 21.5 µM (inactive) | 14.3 µM (inactive) | 18.4 µM (inactive) | > 10 µM (inactive) | 15.8 µM (inactive) | 14.7 µM (inactive) | 17.1 µM (inactive) | 20.1 µM (inactive)
CSC(=O)/C=C1\SS/C(=C\C(=O)SC)S1 | 0.796 µM (active) | 2.06 | 2.99 µM (inactive) | 1.81 µM (inactive) | 2.43 µM (inactive) | 1.77 µM (inactive) | 3.09 µM (inactive) | 6.24 µM (inactive) | 3.08 µM (inactive) | 3.44 µM (inactive) | 2.74 µM (inactive) | 3.75 µM (inactive) | 5.05 µM (inactive) | 2.13 µM (inactive) | 3.06 µM (inactive) | 2.51 µM (inactive) | 2.34 µM (inactive) | 2.58 µM (inactive) | 4.93 µM (inactive) | 5.36 µM (inactive)
